The target of series [1] is T1, hAR (Homo sapiens, UniProt P10275).
T1 sequence (P10275 1-920): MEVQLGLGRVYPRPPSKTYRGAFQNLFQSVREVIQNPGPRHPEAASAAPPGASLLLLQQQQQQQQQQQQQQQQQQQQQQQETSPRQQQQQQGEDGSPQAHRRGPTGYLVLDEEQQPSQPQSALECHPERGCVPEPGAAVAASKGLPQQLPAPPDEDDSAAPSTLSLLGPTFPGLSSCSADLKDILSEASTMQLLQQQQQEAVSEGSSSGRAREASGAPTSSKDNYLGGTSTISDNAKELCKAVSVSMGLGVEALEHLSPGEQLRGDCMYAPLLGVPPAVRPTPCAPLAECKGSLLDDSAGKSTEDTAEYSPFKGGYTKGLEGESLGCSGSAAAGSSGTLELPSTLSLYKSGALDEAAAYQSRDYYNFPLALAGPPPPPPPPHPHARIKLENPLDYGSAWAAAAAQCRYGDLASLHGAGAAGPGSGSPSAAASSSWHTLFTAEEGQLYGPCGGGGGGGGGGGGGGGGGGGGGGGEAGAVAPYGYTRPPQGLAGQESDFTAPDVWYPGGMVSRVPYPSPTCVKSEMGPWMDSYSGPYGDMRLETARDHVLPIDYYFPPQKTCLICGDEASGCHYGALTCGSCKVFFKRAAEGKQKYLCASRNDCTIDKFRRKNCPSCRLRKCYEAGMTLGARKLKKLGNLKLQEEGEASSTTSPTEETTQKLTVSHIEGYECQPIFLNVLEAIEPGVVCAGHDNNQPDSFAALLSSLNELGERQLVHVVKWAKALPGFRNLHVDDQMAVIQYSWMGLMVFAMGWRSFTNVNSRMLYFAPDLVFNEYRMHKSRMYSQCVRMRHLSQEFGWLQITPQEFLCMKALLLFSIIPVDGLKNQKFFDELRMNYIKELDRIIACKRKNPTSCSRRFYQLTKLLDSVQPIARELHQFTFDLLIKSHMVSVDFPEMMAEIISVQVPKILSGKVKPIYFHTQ
Nature of the series: Competitive binding of 3H-DHT to baculovirus/Sf9 generated hAR extracts. The following applies: one hour at 4° C., mean of multiple tests. Put shortly: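 Baculovirus/Sf9-expressed hAR extract incubated with test compound, hydroxylapatite and 1 nM 3H-DHT tracer for 1 h at 4° C, then washed free of unbound tracer. Affinity given as concentration inhibiting half of maximal 3H-DHT binding.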

In series [2] the target is T2, androgen receptor (Homo sapiens, UniProt P10275).
T2 sequence (P10275 1-920 Q868H): T1 sequence (P10275 1-920) with Q868H
Nature of the series: AR Antagonist Cell Assay (MDA-MB453-MMTV clone 54-19, luciferase reporter). The following applies: inhibition of induction by DHT (final concentration at 100 μM), 17 hr, compound 0.32-1000 nM, mean of multiple tests. The series is classed as cell-based. In outline:
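MDA-MB453 breast tumour cells stably carrying an ARE-containing MMTV promoter driving firefly luciferase, plated overnight at 37° C in charcoal-treated serum medium. DHT added (final […]) and incubated 17 hr at 37° C. Luminescence read after adding luciferase buffer; values are means of multiple tests.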
A general note: In a reporter assay the amount or activity of a reporter protein is the signal.

Series [3] deals with spinal BMD. The following applies: after 7 years of treatment; cited from earlier work.
Setting [4] is: IC50, concentration at which one half of maximum binding of 1 nM 3H-DHT to hAR is inhibited.
The mark [5] stands for this setting: concentration at which one half of maximum binding of 1 nM 3H-DHT to hAR is inhibited, read-out: IC50.

Positions count from the first letter of the chain named. Where two headings read alike, the source gives them in different places. Bounds are passed on as bounds.

The term melting point denotes the temperature of the solid-liquid transition. In the case of `C[C@@H](c1ccc(F)cc1)N1CC(C)(C)[C@@H](Oc2ccc(C#N)c(C(F)(F)F)c2)C1=O` (mixture of isomers) [Example 71, (±)-4-{1-[1-(4-Fluoro-phenyl)-ethyl]-4,4-dimethyl-2-oxo-pyrrolidin-3-yloxy}-2-trifluoromethyl-benzonitrile], the melting point fell in the range of 114 to 115 °C.

A word on the IC50: it is the concentration needed to halve the response being measured. As to `CSc1ccc(CN2CC(C)(C)C(Oc3ccc(C#N)c(C(F)(F)F)c3)C2=O)cc1` (racemic) [Example 22, (±)-4-[4,4-Dimethyl-1-(4-methylsulfanyl-benzyl)-2-oxo-pyrrolidin-3-yloxy]-2-trifluoromethyl-benzonitrile], the melting point was in the range of 44.1 to 44.8 °C. Also, the IC50 in series [1] (setting [4]) turned out to be 40 nM. In series [2], this compound showed an IC50 of 99 nM.

In turn, `C[C@@H](c1ccc(F)cc1)N1CC(C)(C)[C@@H](Oc2ccc(C#N)c(C(F)(F)F)c2)C1=O` (racemic) [Example 70, (±)-4-{1-[1-(4-Fluoro-phenyl)-ethyl]-4,4-dimethyl-2-oxo-pyrrolidin-3-yloxy}-2-trifluoromethyl-benzonitrile] had a melting point of 82 to 83 °C. Also, the IC50 in series [1] (setting [4]) was 52 nM. In series [2], this compound registered an IC50 of 85 nM.

Turning to `CC(c1cccc(O)c1)N1CC(C)(C)C(Oc2ccc(C#N)c(C(F)(F)F)c2)C1=O` (single isomer, unassigned; (+)) [Example 24, (+)-4-{1-[1-(3-Hydroxy-phenyl)-ethyl]-4,4-dimethyl-2-oxo-pyrrolidin-3-yloxy}-2-trifluoromethyl-benzonitrile], the melting point lay in the range of 185.1 to 185.8 °C. In addition, the IC50 in series [1] (setting [4]) was found to be 10 nM. Moreover, inhibition in series [2] was half-maximal at 33 nM (IC50).

Turning to `CC1(C)CN(Cc2nnc(-c3cccc(F)c3)o2)C(=O)C1Oc1ccc(C#N)c(C(F)(F)F)c1` (centres unmarked) [Example 115, 4-{1-[5-(3-Fluoro-phenyl)-[1,3,4]oxadiazol-2-ylmethyl]-4,4-dimethyl-2-oxo-pyrrolidin-3-yloxy}-2-trifluoromethyl-benzonitrile], the IC50 is 142 nM in series [1] (setting [5]) and 415 nM in series [2] (read-out: IC50).

As for `CC1(C)CN(Cc2nnc(-c3ccc(F)cc3)o2)C(=O)C1Oc1ccc(C#N)c(C(F)(F)F)c1` (centres unmarked) [Example 116, 4-{1-[5-(4-Fluoro-phenyl)-[1,3,4]oxadiazol-2-ylmethyl]-4,4-dimethyl-2-oxo-pyrrolidin-3-yloxy}-2-trifluoromethyl-benzonitrile], the IC50 in series [1] (setting [5]) came to 206 nM; in series [2] (read-out: IC50), 369 nM.

As to `Cc1ccc(-c2nnc(CN3CC(C)(C)C(Oc4ccc(C#N)c(C(F)(F)F)c4)C3=O)o2)s1` (centres unmarked) [Example 117, 4-{4,4-Dimethyl-1-[5-(5-methyl-thiophen-2-yl)-[1,3,4]oxadiazol-2-ylmethyl]-2-oxo-pyrrolidin-3-yloxy}-2-trifluoromethyl-benzonitrile], the results for the IC50 in series [1] (setting [5]) and in series [2] (read-out: IC50) were 259 nM and 117 nM, respectively.

With `COc1cccc(-c2nnc(CN3CC(C)(C)C(Oc4ccc(C#N)c(C(F)(F)F)c4)C3=O)o2)c1` (centres unmarked) [Example 118, 4-{1-[5-(3-Methoxy-phenyl)-[1,3,4]oxadiazol-2-ylmethyl]-4,4-dimethyl-2-oxo-pyrrolidin-3-yloxy}-2-trifluoromethyl-benzonitrile], the values for the IC50 in series [1] (setting [5]) and in series [2] (read-out: IC50) were 170 nM and 381 nM, respectively.

As for `COc1ccc(-c2nnc(CN3CC(C)(C)C(Oc4ccc(C#N)c(C(F)(F)F)c4)C3=O)o2)cc1` (centres unmarked) [Example 119, 4-{1-[5-(4-Methoxy-phenyl)-[1,3,4]oxadiazol-2-ylmethyl]-4,4-dimethyl-2-oxo-pyrrolidin-3-yloxy}-2-trifluoromethyl-benzonitrile], the values for the IC50 in series [1] (setting [4]) and in series [2] (read-out: IC50) were 80 nM and 199 nM, respectively.

Take `COc1ccccc1-c1nnc(CN2CC(C)(C)C(Oc3ccc(C#N)c(C(F)(F)F)c3)C2=O)o1` (centres unmarked) [Example 121, 4-{1-[5-(2-Methoxy-phenyl)-[1,3,4]oxadiazol-2-ylmethyl]-4,4-dimethyl-2-oxo-pyrrolidin-3-yloxy}-2-trifluoromethyl-benzonitrile]: the IC50 in series [1] (setting [5]) was determined as 131 nM; in series [2] (read-out: IC50) it was 166 nM.

As to `CC1(C)CN(Cc2nnc(-c3ccc(O)cc3O)o2)C(=O)C1Oc1ccc(C#N)c(C(F)(F)F)c1` (centres unmarked) [Example 123, 4-{1-[5-(2,4-Dihydroxy-phenyl)-[1,3,4]oxadiazol-2-ylmethyl]-4,4-dimethyl-2-oxo-pyrrolidin-3-yloxy}-2-trifluoromethyl-benzonitrile], the results for the IC50 in series [1] (setting [4]) and in series [2] (read-out: IC50) were 61 nM and 176 nM, respectively.

In the case of `CC1(C)CN(Cc2nnc(-c3ccccc3Cl)o2)C(=O)C1Oc1ccc(C#N)c(C(F)(F)F)c1` (centres unmarked) [Example 127, 4-{1-(5-(2-Chloro-phenyl)-[1,3,4]oxadiazol-2-ylmethyl]-4,4-dimethyl-2-oxo-pyrrolidin-3-yloxy}-2-trifluoromethyl-benzonitrile], the IC50 in series [1] (setting [5]) was 198 nM; in series [2] (read-out: IC50) it was greater than 1000 nM.

Regarding `CC(c1nnc(-c2ccccc2O)o1)N1CC(C)(C)C(Oc2ccc(C#N)c(C(F)(F)F)c2)C1=O` (centres unmarked) [Example 130, 4-(1-{1-[5-(2-hydroxy-phenyl)-[1,3,4]oxadiazol-2-yl]-ethyl}-4,4-dimethyl-2-oxo-pyrrolidin-3-yloxy)-2-trifluoromethyl-benzonitrile], the values for the IC50 in series [1] (setting [4]) and in series [2] (read-out: IC50) were 85 nM and 198 nM, respectively.

Consider `NCCCC(O)(P(=O)(O)O)P(=O)(O)O` [alendronate], for which the “increase in spinal BMD” value in series [3] is recorded as no more than 11%.

The record behind these values is patent publication US7674819B2 (Warner-Lambert Company LLC, priority 2005, dated 2010).
